Reference: patent publication US8673849B2, “Lactadherin-derived peptides as antiviral agents” (priority 2010, dated 2014)
Where a SMILES comes first, the peptide text is derived from it. Where no end group is shown, it is not given here.

B1: human lactadherin: purified human lactadherin, glycoprotein of milk fat globule membranes, 387 amino acids (protein, UniProt Q08431 24-387, looked up)
Lactadherin: LDICSKNPCHNGGLCEEISQEVRGDVFPSYTCTCLKGYAGNHCETKCVEPLGLENGNIANSQIAASSVRVTFLGLQHWVPELARLNRAGMVNAWTPSSNDDNPWIQVNLLRRMWVTGVVTQGASRLASHEYLKAFKVAYSLNGHEFDFIHDVNKKHKEFVGNWNKNAVHVNLFETPVEAQYVRLYPTSCHTACTLRFELLGCELNGCANPLGLKNNSIPDKQITASSSYKTWGLHLFSWNPSYARLDKQGNFNAWVAGSYGNDQWLQVDLGSSKEVTGIITQGARNFGSVQFVASYKVAYSNDSANWTEYQDPRTGSSKIFPGNWDNHSHKKNLFETPILARYVRILPVAWHNRIALRLELLGC
B2: bovine lactadherin: bovine lactadherin, glycoprotein of milk fat globule membranes, 427 amino acid residues (protein, UniProt Q95114 19-427, looked up)
Lactadherin: ASGDFCDSSLCLHGGTCLLNEDRTPPFYCLCPEGFTGLLCNETEHGPCFPNPCHNDAECQVTDDSHRGDVFIQYICKCPLGYVGIHCETTCTSPLGMQTGAIADSQISASSMHLGFMGLQRWAPELARLHQTGIVNAWTSGNYDKNPWIQVNLMRKMWVTGVVTQGASRAGSAEYLKTFKVAYSTDGRQFQFIQVAGRSGDKIFIGNVNNSGLKINLFDTPLETQYVRLVPIICHRGCTLRFELLGCELNGCTEPLGLKDNTIPNKQITASSYYKTWGLSAFSWFPYYARLDNQGKFNAWTAQTNSASEWLQIDLGSQKRVTGIITQGARDFGHIQYVAAYRVAYGDDGVTWTEYKDPGASESKIFPGNMDNNSHKKNIFETPFQARFVRIQPVAWHNRITLRVELLGC

Key:
[1] = target: integrin proteins on the cell surface
[2] = tested on: human rotavirus strain Wa; format: cell-based; settings: for anti-rotavirus activity (in words): statement on Table 6
Description: To cultivate the rotavirus, the cell line MA-104 (monkey foetal kidney cells), obtained from the Cell Substrata Centre of the Experimental Animal Disease Institute, Brescia, Italy, was used. This cell line is cultured as a monolayer in EAGLE minimum essential medium (MEM) containing 5% heat-inactivated (56° C. for 30 minutes) bovine foetal serum (Sigma) and is maintained at 37° C. at 5% CO2.
For the in vitro infection assay, the cell line MA-104 and the human rotavirus strain Wa (TC adapted), obtained from the American Type Culture Collection (ATCC VR-2018) and propagated in MA-104 cells, were used.
To set up the assay, cells were seeded in 96-well plates and, once 80% confluence was achieved, were pre-treated for 1 hour with increasing concentrations of RGD- and/or DGE-containing peptides or their mutated counterparts and incubated at 37° C. The peptides containing the RGD or the DGE motif were used either alone or in combination. Cells were then washed with medium and infected with the pre-activated virus (5 μg/ml tripsin for 30 minutes at 37° C.) in the presence of the peptides. After a 1 hour incubation cells were washed with medium and incubated in medium containing 0.5 μg/ml tripsin and the peptides at 37° C. for 20 hours. The infected cells were visualised through an immunoperoxidase assay, using murine monoclonal antibodies specific for the capsidic protein VP6 of the rotavirus (Abcam) and the kit “UltraTech HRP Streptavidin-Biotin detection system” (Beckman Coulter). The infected cells were counted by observation under the optical microscope and the percentage of infection calculated by comparison of treated with non-treated cells.

[3] = target: integrin proteins on the cell surface; remark: listed apart in the source
[4] = tested on: simian rotavirus strain SA11; settings: MA104 cells, dose-dependent; Graham et al.; cited from earlier work
[5] = target: T1, modified porcine trypsin (Sus scrofa, UniProt P00761); format: in vitro ADME
T1 construct: purchased Promega
Description: The peptide SEQ ID NO: 1 was dissolved in ultra pure H2O to obtain a final concentration of 10 mg/ml. Dilutions from 1:10 to 1:10,000 were obtained. All concentrations were tested by MALDI-TOF analyses. 0.5 μl of samples from dilutions 1:10, 1:100, 1:1,000, 1:10,000 were spotted onto a MALDI target plate and left to dry at RT. 0.5 μl of α-cyano-4-hydroxy-cinnamic acid in 30% acetonitrile, 0.1% TFA (HCCA matrix solution) were added to each sample and left to dry under vacuum. Spectra were obtained using a Bruker Ultraflex II MALDI-TOF/TOF mass spectrometer (Bruker Daltonics) in reflectron and positive ion mode. External calibration was performed using “Peptide calibration standard” from Bruker Daltonics.
To evaluate the digestibility of the SEQ ID NO: 1 peptide with trypsin, […] of a 0.2 μg/μl solution (25 mM NH4HCO3) of modified porcine trypsin (Promega) were added to 150 μl of the 10 mg/ml peptide solution ((25 mM NH4HCO3) enzyme to protein ratio 1:100). The sample was incubated at 37° C. and 0.5 μl were collected at different time of digestion: 5′, 15′, 30′, 60′ 90′ 120′. Each samples was spotted on MALDI target and spectra were collected as already described in Example 4a. In FIG. 5 the time course experiment evaluated by MALDI TOF analyses is shown.

[6] = target: integrin proteins on the cell surface; remark: listed apart in the source
[7] = tested on: rotavirus; settings: purified lactadherin; Kvistgaard et al., 2004; cited from earlier work
[8] = target: integrin proteins on the cell surface; remark: listed apart in the source
[9] = target: integrin proteins on the cell surface; remark: listed apart in the source

T1 sequence (P00761 9-231): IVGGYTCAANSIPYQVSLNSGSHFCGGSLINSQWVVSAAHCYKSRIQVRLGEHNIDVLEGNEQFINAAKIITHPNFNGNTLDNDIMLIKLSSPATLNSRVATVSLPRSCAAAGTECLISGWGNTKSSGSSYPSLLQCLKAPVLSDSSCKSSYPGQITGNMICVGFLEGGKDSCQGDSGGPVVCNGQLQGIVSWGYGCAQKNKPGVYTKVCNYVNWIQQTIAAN

Row | Molecule | IC50 (µg/ml), inhibition of human rotavirus Wa infection of MA-104 cells [1] [µg/mL] | IC50 [2] [µM] | IC50 (μg/ml) [2] [µg/mL] | further results
1 | pRGE: S-H-R-G-E-V-F-T (RGD -> RGE mutation) (peptide) | 558 | – | – | IC50 (µM), inhibition of human rotavirus Wa infection of MA-104 cells [1]: 600 µM
2 | SHRGDVFI [Bo-RGD, S-H-R-G-D-V-F-I, reference compound] | – | 395 | 367.1 | –
3 | Control peptide D-G-E-A (Graham et al.) | 121 | – | – | IC50 (µM), inhibition of human rotavirus Wa infection of MA-104 cells [1]: 311 µM
4 | QNDGECHV [SEQ ID NO: 3, Q-N-D-G-E-C-H-V] | – | 17.3 | 15.6 | –
5 | Dendrimeric peptide of formula (VII): [[(HRGDVFT)2-Lys][(NDGECHV)2-Lys]]-Lys-β-Ala-NH2 | – | – | – | IC50, inhibition of rotavirus infection, infected cells counted by immunoperoxidase [3]: 3.6 µM
6 | C[C@H](NC(=O)[C@H](CCC(=O)O)NC(=O)CNC(=O)[C@@H](N)CC(=O)O)C(=O)O [DGEA, D-G-E-A, reference compound] (H-DGEA-OH; N-terminus and C-terminus assumed) | – | 311 | 121.4 | inhibition of rotavirus binding to and infection of cells (in words) [4]: inhibit
7 | SHRGDVFT [SEQ ID NO: 5, S-H-R-G-D-V-F-T] | – | 111 | 101.5 | –
8 | QNDGECHVIDDSHRGDVFSQ [SEQ ID NO: 8] | – | 6.35 | 14.43 | anti-rotavirus activity (in words) [2]: show antiviral activity
9 | QNAGECHVIDDSHRGEVFTQ [SEQ ID NO: 10] | – | > 220 | >500 | anti-rotavirus activity (in words) [2]: completely lost any anti-rotavirus activity
10 | QNDGECHVIDDSHRGDVFQT [SEQ ID NO: 9] | – | 4.17 | 9.469 | anti-rotavirus activity (in words) [2]: show antiviral activity
11 | GPRP | – | – | – | inhibition of rotavirus binding to and infection of cells (in words) [4]: inhibit
12 | SHRGEVFT [pRGE, S-H-R-G-E-V-F-T, reference compound] | – | 600 | 558.5 | –
13 | EVRGDVFP [Hu-RGD, E-V-R-G-D-V-F-P, reference compound] | – | 104 | 95.3 | –
14 | QNDGECHVIDDSHRGDVFTQ [SEQ ID NO: 1, QNDGECHVIDDSHRGDVFTQ] | – | 1.72 | 3.9 | integrity of the peptide on trypsin digestion [5]: didn't affect the integrity
15 | QNDGECHVIDDSDRGDVFTQ [SEQ ID NO: 11] | – | 10.5 | 23.90 | anti-rotavirus activity (in words) [2]: maintains its anti-rotavirus activity
16 | pAGE: Q-N-A-G-E-C-H-V (DGE -> AGE mutation) (peptide) | 220 | – | – | IC50 (µM), inhibition of human rotavirus Wa infection of MA-104 cells [1]: 257 µM
17 | NNDGECHVIDDSHRGDVFTQ [SEQ ID NO: 7] | – | 13.5 | 30.51 | anti-rotavirus activity (in words) [2]: show antiviral activity
18 | QNAGECHV [pAGE, Q-N-A-G-E-C-H-V, reference compound] | – | 257 | 219.6 | –
19 | QNDGECHV (not fully specified) [peptidic compound of SEQ ID NO: 3 (Q-N-D-G-E-C-H-V)] | 15.6 | – | – | % of inhibition of rotavirus infection at 100 µg/ml (96.6 µM), one representative experiment (% of inhibition) [6]: 52.7; IC50 (µM), inhibition of human rotavirus Wa infection of MA-104 cells [1]: 17.3 µM
20 | B1 | – | – | – | activity against rotavirus infection (in words) [7]: active against rotavirus infection
21 | QNDGECHVIDDSHRGDVFTQ (not fully specified) [peptidic compound of SEQ ID NO: 1 (QNDGECHVIDDSHRGDVFTQ)] | 3.9 | – | – | IC50 (µM), inhibition of human rotavirus Wa infection of MA-104 cells [1]: 1.72 µM; % of inhibition of rotavirus infection at 100 µg/ml (36.6 µM), one representative experiment (% of inhibition) [8]: 61
22 | SHRGDVFI (not fully specified) [Bo-RGD: S-H-R-G-D-V-F-I] | 367 | – | – | IC50 (µM), inhibition of human rotavirus Wa infection of MA-104 cells [1]: 395 µM
23 | B2 | – | – | – | activity against rotavirus infection (in words) [7]: does not possess this activity
24 | SHRGDVFT (not fully specified) [peptidic compound of SEQ ID NO: 5 (S-H-R-G-D-V-F-T)] | 102 | – | – | % of inhibition of rotavirus infection at 100 µg/ml (93.3 µM), one representative experiment (% of inhibition) [9]: 46.9; IC50 (µM), inhibition of human rotavirus Wa infection of MA-104 cells, infected cells counted by immunoperoxidase [1]: 111 µM
25 | EVRGDVFP (not fully specified) [Hu-RGD: E-V-R-G-D-V-F-P] | 95.3 | – | – | IC50 (µM), inhibition of human rotavirus Wa infection of MA-104 cells [1]: 104 µM
